Calls of active or inactive are those of the source.
Assays:
[1] = molecular target: Protein Tat (Human immunodeficiency virus type 1 group M subtype B (isolate HXB2)(HIV-1), UniProt P04608); type: functional;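 note: tat binding to TAR RNA read out by fluorescence polarization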
[2] = P. falciparum Dd2 growth inhibitors, dose response, SYBR Green, cherry-picked samples (AID 1159567); type: functional, cell-based
[3] = growth inhibition of PfATP4-mutant resistant parasites – NITD609-resistant line, SYBR Green, dry powder, dose response (AID 1159571); type: functional, cell-based;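 note: parasites synchronized at ring stage by sorbitol before testing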
[4] = toxicity to human HepG2 hepatoma cells – cell-based, plate reader, dry powder samples, cytotoxicity control, dose response (AID 1159569); type: functional;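 note: inhibitor potency with signal falling toward the positive control level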
[5] = Plasmodium falciparum Dd2 Sybr green parasite growth Measured in Cell-Based and Microorganism Combination System Using Plate Reader - 2153-01_Inhibitor_Dose_DryPowder_Activity_Set3.; type: functional
[6] = growth inhibition of yeast DHODH-expressing 3D7 parasites – SYBR Green, dry powder samples, dose response (AID 1159570); type: functional, cell-based;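 note: parasite growth measured after 72 hours of compound exposure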
[7] = Dd2 malaria parasite growth inhibition potency – SYBR Green, dry powder samples, dose response (AID 1159566); type: functional, cell-based;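 note: potency for growth inhibition with lower SYBR green DNA signal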
[8] = molecular target: Phospholipase A2 (Homo sapiens, UniProt P04054); type: functional;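 note: confirmatory dose-response counterscreen on phospholipase A2, testing hits that came from an ultra-high-throughput screen for ATG4B inhibitors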
[9] = molecular target: T1, Cysteine protease ATG4B (Homo sapiens, UniProt Q9Y4P1); type: functional;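 note: Fluorescence-based dose-response confirmation assay measuring inhibition of ATG4B activity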
T1 sequence (Q9Y4P1 whole entry): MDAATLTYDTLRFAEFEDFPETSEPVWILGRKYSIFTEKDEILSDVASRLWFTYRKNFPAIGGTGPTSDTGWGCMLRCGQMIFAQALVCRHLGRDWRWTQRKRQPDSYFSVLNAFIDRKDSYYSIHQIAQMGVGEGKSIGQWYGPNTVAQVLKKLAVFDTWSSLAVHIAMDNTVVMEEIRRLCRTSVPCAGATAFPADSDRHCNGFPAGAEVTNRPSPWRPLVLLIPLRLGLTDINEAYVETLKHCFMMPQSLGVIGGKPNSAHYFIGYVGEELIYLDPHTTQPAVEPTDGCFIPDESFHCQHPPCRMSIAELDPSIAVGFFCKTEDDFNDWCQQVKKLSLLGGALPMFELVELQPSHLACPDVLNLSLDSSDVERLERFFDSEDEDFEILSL

[10] = molecular target: Bifunctional protein GlmU (Mycobacterium tuberculosis, UniProt P9WMN3); test: Inhibitors of Mycobacterial Glucosamine-1-phosphate acetyl transferase (GlmU). Secondary screen.; parameters: species or system Mycobacterium tuberculosis H37Rv
[11] = HPDE-C7 pancreatic duct cell viability loss – fluorescence, HTS (AID 430); type: functional, cell-based; details: Homo sapiens
[12] = reduced cellular PGC1a acetyl-lysine signal – cell-based, cherry-picked samples, dose response (AID 720514); type: functional;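 note: potency may reflect raised or lowered acetylation signal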
[13] = test system: Vero; test: viability of Vero cells under compound – cytotoxicity control for flavivirus capping enzyme inhibitors (AID 588742); type: functional; details: Chlorocebus sabaeus
[14] = molecular target: Glucose-6-phosphate 1-dehydrogenase (Homo sapiens, UniProt P11413); test: inhibition of Homo sapiens G6PD, dose series – biochemical, fluorescence, selectivity assay for P. falciparum G6PD inhibitor project, dose response (AID 504792); type: functional
[15] = molecular target: T2, Sphingosine 1-phosphate receptor 2 (Homo sapiens, UniProt O95136); test: Dose Response Cell Based Assay for Antagonists of the S1P2 Receptor. [Related pubchem assays: 856, 736 ]; type: functional
[16] = molecular target: Genome polyprotein (dengue virus type 2, UniProt P29990); test: flavivirus cap methylation enzyme inhibition – biochemical, confirmation dose response, primary screen (AID 588689); type: functional
[17] = viability loss of HPDE-C7K cells – cell-based, fluorescence, HTS, primary screen (AID 431); type: functional; details: Homo sapiens
[18] = molecular target: Mitogen-activated protein kinase 10 (Homo sapiens, UniProt P53779); test: Dose response biochemical screening assay for inhibitors of c-Jun N-Terminal Kinase 3 (JNK3). [Related pubchem assays: 746 ]
[19] = COV434 cell viability loss – plate reader, dry powder, SA7, cytotoxicity control for PAX8 inhibitor project, dose response (AID 743145); type: functional, cell-based
[20] = OVCAR-3 cell viability loss – plate reader, dry powder samples, PAX8 inhibitor project, dose response (AID 743044); type: functional, cell-based
[21] = IGROV1 cell killing – plate reader, dry powder samples, PAX8 inhibitor project, dose response (AID 743043); type: functional, cell-based; details: IGROV-1
[22] = OVCAR8 cell viability loss – plate reader, dry powder samples, PAX8 project, dose response (AID 743197); type: functional, cell-based; details: OVCAR-8
[23] = PAX5 cellular inhibition readout – cell-based, plate reader, dry powder samples, selectivity assay for PAX8 inhibitor project, dose response (AID 743047); type: functional;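 note: HEK293 cells carrying a Pax5 driven CD19 promoter luciferase reporter; potency of inhibitors that lower reporter luminescence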
[24] = inhibitors acting on PAX2 in cells – cell-based, plate reader, dry powder samples, selectivity assay for PAX8 inhibitor project, dose response (AID 743048); type: functional;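 note: HEK293 cells carrying a WT1 promoter luciferase reporter driven by expressed Pax2; potency is for inhibition of Pax2 driven reporter signal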
[25] = PAX8-dependent cell viability loss – plate reader, dry powder, dose response (AID 743049); type: functional, cell-based
[26] = molecular target: Paired box protein Pax-8 (Homo sapiens, UniProt Q06710); test: PAX8 transcriptional activity inhibition in RMG-I – RMG-I cells, luciferase, cherry-pick, dose response (AID 687027); type: functional, cell-based;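 note: luciferase reporter driven by Pax8 target thyroperoxidase promoter measured by SteadyGlo luminescence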
[27] = molecular target: T3, Streptokinase A (Streptococcus pyogenes serotype M1, UniProt P10520); test: viability-normalized secreted streptokinase activity reduction – plasminogen activation absorbance, OD405, dose response (AID 1914); type: functional, Streptococcus pyogenes M1 GAS;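 note: secreted streptokinase activity via plasminogen activation per viability signal from cell pellet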
T3 sequence (P10520 whole entry): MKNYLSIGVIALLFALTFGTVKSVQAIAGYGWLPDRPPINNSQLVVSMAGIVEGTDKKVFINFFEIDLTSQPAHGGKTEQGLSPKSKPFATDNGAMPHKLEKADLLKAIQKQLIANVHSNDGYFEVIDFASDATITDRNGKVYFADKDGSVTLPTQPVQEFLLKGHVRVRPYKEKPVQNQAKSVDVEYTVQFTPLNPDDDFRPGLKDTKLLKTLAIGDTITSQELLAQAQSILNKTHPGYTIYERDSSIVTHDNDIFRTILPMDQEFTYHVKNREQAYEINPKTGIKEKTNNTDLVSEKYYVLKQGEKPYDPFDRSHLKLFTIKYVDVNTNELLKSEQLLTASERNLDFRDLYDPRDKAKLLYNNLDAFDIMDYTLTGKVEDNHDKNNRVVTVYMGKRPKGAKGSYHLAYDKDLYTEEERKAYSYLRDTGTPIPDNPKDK

[28] = molecular target: T2, Sphingosine 1-phosphate receptor 2; test: Dose Response Cell Based Assay for Agonists of the S1P2 Receptor. [Related pubchem assays: 729, 736, 843 ]; type: functional
[29] = test system: Streptococcus sp. 'group A'; test: Streptococcus pyogenes SK(-)GAS viability under kanamycin – luminescence, BacTiterGlo, confirmation, counter-screen for streptokinase expression inhibitor project, dose response (AID 1900); type: functional, organism-based
[30] = test system: Streptococcus; test: GAS UMAA2166 growth inhibition – luminescence, BacTiterGlo, counter-screen for streptokinase expression inhibitor project, dose response (AID 1915); type: functional, organism-based;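 note: potency for reduction of bacterial viability or growth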
[31] = Luminescence Cell-Based Dose Retest to Confirm Inhibitors of Cancer Stem Cells. [Related pubchem assays (depositor defined):AID2717, AID2721]; type: functional; details: Homo sapiens

T2 sequence (O95136 whole entry): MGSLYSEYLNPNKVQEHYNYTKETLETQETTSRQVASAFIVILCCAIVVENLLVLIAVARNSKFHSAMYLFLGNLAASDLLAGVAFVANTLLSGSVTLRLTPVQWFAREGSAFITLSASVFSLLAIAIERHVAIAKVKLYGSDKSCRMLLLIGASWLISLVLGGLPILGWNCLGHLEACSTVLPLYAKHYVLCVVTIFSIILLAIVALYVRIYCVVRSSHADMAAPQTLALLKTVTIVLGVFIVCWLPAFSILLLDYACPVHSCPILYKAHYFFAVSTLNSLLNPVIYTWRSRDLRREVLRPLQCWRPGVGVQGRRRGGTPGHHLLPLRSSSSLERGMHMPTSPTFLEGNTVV
Paired box protein Pax-8, sequence (Q06710 whole entry): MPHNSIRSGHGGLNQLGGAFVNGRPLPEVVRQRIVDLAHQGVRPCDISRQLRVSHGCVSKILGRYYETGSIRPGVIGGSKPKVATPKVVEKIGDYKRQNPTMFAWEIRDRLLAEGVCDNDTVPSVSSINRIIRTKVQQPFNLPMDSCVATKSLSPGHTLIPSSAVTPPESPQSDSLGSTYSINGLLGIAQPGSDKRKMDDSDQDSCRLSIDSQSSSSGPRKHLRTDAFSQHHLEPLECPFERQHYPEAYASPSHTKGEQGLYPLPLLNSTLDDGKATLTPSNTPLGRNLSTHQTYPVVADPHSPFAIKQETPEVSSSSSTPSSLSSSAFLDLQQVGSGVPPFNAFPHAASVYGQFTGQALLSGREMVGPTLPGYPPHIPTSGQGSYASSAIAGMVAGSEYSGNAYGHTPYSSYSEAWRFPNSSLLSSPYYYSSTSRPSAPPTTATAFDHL
Mitogen-activated protein kinase 10, sequence (P53779 whole entry): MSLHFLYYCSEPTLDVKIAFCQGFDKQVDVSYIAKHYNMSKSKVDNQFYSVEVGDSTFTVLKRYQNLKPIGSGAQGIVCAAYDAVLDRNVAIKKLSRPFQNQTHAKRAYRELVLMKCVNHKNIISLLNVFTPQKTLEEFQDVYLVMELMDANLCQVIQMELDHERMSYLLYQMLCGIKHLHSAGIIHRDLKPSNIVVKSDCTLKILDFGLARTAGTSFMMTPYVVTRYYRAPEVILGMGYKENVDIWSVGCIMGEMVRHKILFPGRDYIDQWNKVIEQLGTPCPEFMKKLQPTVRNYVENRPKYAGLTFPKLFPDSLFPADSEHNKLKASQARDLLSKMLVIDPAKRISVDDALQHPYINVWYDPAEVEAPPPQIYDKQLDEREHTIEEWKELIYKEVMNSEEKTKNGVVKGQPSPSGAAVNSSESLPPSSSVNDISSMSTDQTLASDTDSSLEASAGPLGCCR
Phospholipase A2, sequence (P04054 whole entry): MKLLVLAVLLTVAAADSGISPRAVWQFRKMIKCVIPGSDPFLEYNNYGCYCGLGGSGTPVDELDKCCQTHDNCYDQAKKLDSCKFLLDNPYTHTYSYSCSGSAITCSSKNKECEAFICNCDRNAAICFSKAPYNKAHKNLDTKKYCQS
Glucose-6-phosphate 1-dehydrogenase, sequence (P11413 whole entry): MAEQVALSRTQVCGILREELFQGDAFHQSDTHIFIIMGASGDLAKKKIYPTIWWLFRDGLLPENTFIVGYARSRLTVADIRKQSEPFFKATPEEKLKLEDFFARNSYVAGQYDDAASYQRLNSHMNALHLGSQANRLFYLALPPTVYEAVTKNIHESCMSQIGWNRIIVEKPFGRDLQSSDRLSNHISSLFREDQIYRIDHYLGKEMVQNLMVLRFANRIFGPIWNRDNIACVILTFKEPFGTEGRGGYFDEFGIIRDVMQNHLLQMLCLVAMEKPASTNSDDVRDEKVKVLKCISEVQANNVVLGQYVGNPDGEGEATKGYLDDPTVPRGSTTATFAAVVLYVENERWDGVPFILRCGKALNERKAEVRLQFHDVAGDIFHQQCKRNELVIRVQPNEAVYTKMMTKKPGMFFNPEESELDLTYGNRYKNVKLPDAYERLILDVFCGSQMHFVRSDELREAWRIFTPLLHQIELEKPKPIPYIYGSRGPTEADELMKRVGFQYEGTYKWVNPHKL
Genome polyprotein, sequence (P29990 2492-3391 limits assumed): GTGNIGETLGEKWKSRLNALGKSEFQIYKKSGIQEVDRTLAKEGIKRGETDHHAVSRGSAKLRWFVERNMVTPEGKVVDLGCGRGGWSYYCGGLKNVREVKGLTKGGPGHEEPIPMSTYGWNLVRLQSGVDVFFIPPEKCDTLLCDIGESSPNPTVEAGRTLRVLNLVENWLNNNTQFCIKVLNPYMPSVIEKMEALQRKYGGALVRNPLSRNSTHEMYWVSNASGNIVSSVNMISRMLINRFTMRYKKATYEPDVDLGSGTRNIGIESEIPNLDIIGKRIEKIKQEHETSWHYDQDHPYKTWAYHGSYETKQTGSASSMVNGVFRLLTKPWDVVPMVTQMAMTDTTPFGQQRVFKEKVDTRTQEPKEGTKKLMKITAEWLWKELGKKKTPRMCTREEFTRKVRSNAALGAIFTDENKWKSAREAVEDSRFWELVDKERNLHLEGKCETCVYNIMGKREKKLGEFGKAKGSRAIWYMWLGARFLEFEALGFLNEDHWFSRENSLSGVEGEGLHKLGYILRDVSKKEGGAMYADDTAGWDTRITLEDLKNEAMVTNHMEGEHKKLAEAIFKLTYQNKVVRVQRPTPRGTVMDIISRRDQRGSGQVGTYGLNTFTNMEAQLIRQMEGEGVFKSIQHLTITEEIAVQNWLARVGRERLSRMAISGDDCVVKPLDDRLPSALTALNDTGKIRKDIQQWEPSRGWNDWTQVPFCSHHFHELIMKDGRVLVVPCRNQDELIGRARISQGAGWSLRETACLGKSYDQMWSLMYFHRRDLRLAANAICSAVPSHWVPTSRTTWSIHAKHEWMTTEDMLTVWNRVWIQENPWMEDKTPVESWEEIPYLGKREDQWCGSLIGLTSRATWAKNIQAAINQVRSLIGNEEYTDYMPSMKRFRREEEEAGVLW
Bifunctional protein GlmU, sequence (P9WMN3 whole entry): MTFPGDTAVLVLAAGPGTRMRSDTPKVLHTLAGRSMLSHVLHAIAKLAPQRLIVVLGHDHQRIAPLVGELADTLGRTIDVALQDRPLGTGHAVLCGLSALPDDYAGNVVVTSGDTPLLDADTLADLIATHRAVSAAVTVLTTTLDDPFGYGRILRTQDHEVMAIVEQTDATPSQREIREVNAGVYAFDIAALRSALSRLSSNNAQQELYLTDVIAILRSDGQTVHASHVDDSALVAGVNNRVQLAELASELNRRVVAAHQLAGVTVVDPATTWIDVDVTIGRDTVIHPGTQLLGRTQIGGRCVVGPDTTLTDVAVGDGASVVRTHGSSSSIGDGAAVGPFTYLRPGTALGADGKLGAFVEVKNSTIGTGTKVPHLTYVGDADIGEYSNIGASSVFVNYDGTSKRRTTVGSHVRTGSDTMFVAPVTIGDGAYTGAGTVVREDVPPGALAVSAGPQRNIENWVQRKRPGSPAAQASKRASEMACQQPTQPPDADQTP
Protein Tat, sequence (P04608 whole entry): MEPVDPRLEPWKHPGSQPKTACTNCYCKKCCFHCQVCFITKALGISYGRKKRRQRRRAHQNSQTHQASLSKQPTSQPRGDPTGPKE

CCCCn1c(N)c(N(CCOC)C(=O)c2cc(-c3ccco3)nc3ccccc23)c(=O)[nH]c1=O
IC50 [1]: > 100 µM (active)

COc1ccc(CN2C[C@@H](C)[C@H](OC)CN(C)C(=O)c3ccc(NC(=O)c4nc5ccccc5s4)cc3OC[C@H]2C)cc1
AC50 [2]: 0.854 µM (active) | AC50 [3]: 1.25 µM (active) | AC50 [4]: > 92 µM (inactive) | AC50 [5]: 1.06 µM (active) | AC50 [6]: 3.16 µM (active) | AC50 [7]: 0.643 µM (active)

C=CC#CC[N+]1(CC#Cc2ccccc2)CCOCC1
IC50 [8]: 11.8 µM (active) | IC50 [9]: 5.56 µM (active) | IC50 [10]: 124 µM (active)

CC(=O)Nc1cc(OC(C)=O)c2nonc2c1OC(C)=O
EC50 [11]: 5.65 µM (active) | AC50 [12]: 4.89 µM (active) | CC50 [13]: 12.6 µM (active) | IC50 [14]: > 80 µM (inactive) | IC50 [15]: 6.21 µM (active) | IC50 [16]: 38 µM (active) | EC50 [17]: 6.32 µM (active) | IC50 [18]: 46.6 µM (not active)

O=C(C[C@H]1CC[C@H]2[C@@H](COC[C@@H](O)CN2S(=O)(=O)c2cccc(Cl)c2)O1)Nc1ccc(-c2ccccc2)cc1
AC50 [19]: 37.9 µM (active) | AC50 [20]: 43 µM (active) | AC50 [21]: 31.2 µM (active) | AC50 [22]: 27.7 µM (active) | AC50 [23]: 3.85 µM (active) | AC50 [24]: 8.55 µM (active) | AC50 [25]: 20.3 µM (active) | AC50 [26]: 8.28 µM (active)

Clc1ccc(-c2ccc(/C=N/Nc3cc(N4CCOCC4)nc(N4CCOCC4)n3)o2)cc1
EC50 [27]: > 150 µM (not active) | EC50 [28]: 10.8 µM (not active) | EC50 [29]: 19.4 µM (active) | CC50 [13]: 34.6 µM (active) | EC50 [30]: 17.1 µM (active) | AC50 [31]: 1.73 µM (active)

Reference: ChEMBL document CHEMBL1201862, “PubChem BioAssay data set” (2004)
